Assay results: US20230132366A9, “METHODS FOR TREATING DYSREGULATED LIPID METABOLISM” (DENALI THERAPEUTICS INC., priority 2018, published 2023)
Positions count from the first letter of the chain named. Entries after “also recorded” stand apart in the source; their conditions may differ.

Experiments:
[1] = system: human iPSC-derived microglia (WT and TREM2 KO); test: In vitro lipid storage assay, lipidomics by LC/MS, iPSC microglia treated with myelin; format: cell-based; details: myelin 25 ug/mL 48 h, LXR agonist 10 uM; for cholesteryl ester (CE) accumulation: WT and TREM2 KO iPSC microglia
Method: Lipid analyses were performed by liquid chromatography (Shimadzu Nexera X2 system, Shimadzu Scientific Instrument, Columbia, Md., USA) coupled to electrospray mass spectrometry (QTRAP 6500+, Sciex, Framingham, Mass., USA). For each analysis, 5 μL of sample was injected on a BEH C18 1.7 μm, 2.1×100 mm column (Waters Corporation, Milford, Mass., USA) using a flow rate of 0.25 mL/min at 55° C. For positive ionization mode, mobile phase A consisted of 60:40 acetonitrile/water (v/v) with 10 mM ammonium formate+0.1% formic acid; mobile phase B consisted of 90:10 isopropyl alcohol/acetonitrile (v/v) with 10 mM ammonium formate+0.1% formic acid. For negative ionization mode, mobile phase A consisted of 60:40 acetonitrile/water (v/v) with 10 mM ammonium acetate; mobile phase B consisted of 90:10 isopropyl alcohol/acetonitrile (v/v) with 10 mM ammonium acetate. The gradient was programmed as follows: 0.0-8.0 min from 45% B to 99% B, 8.0-9.0 min at 99% B, 9.0-9.1 min to 45% B, and 9.1-10.0 min at 45% B. Electrospray ionization was performed in either positive or negative ion mode applying the following settings: curtain gas at 30; collision gas was set at medium; ion spray voltage at 5500 (positive mode) or 4500 (negative mode); temperature at 250° C. (positive mode) or 600° C. (negative mode); ion source Gas 1 at 50; ion source Gas 2 at 60. Data acquisition was performed using Analyst 1.6.3 (Sciex) in multiple reaction monitoring mode (MRM), with the following parameters: dwell time (msec) and collision energy (CE) for each species reported in Table 2 (positive mode) or Table 3 (negative mode); declustering potential (DP) at 80; entrance potential (EP) at 10 (positive mode) or −10 (negative mode); and collision cell exit potential (CXP) at 12.5 (positive mode) or −12.5 (negative mode). Lipids were identified based on their retention times and MRM properties of commercially available reference standards (Avanti Polar Lipids, Birmingham, Ala., USA). Quantification was performed using MultiQuant 3.02 (Sciex). Metabolites were normalized to either total protein amount or cell number. […]

[2] = target: T1, TREM2 (Homo sapiens, UniProt Q9NZC2); test: pSYK AlphaLISA in TREM2/DAP12-expressing stable HEK293 cells; format: cell-based; design: expressed in transfected cells; details: for binding to and signaling via TREM2 (overall conclusion): conclusion from pSYK and SPR studies; for pSYK levels: liposomes 30% test lipid/70% PC, or oxLDL, vs DAP12-only cells and buffer control
T1 sequence (Q9NZC2 19-230): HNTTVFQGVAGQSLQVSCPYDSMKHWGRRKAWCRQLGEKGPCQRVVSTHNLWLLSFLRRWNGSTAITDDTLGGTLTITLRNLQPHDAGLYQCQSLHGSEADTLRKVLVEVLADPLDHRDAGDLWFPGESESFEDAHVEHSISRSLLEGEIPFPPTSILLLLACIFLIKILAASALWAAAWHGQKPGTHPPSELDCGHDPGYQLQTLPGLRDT
T1 sequence (O43914 22-113 partner): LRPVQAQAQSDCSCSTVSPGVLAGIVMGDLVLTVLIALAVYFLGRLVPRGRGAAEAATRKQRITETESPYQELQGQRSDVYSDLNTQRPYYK
Method: (§1) 70 molar percent DOPC (1,2-dioleoyl-sn-glycero-3-phosphocholine, Avanti Polar Lipids) and 30 molar percent of one test lipid were combined in chloroform in a glass vial and dried under a stream of N2 gas for 1-2h, or until completely dry. Test lipids included sulfatide (Avanti), POPS (Avanti), SM (Avanti), PI (Avanti), GalCer (Avanti), PE (Echelon Biosciences), and free cholesterol (Echelon Biosciences). The lipid mixture was re-suspended in HBSS (1-2 mg/mL final lipid concentration) and vortexed for 2-3 min. Subsequently, the lipid suspension was bath sonicated for 10 minutes. For surface plasmon resonance experiments, liposomes were extruded 10 times using an Avanti mini-extruder constructed with one 100 nm pore size membrane to form small unilamellar vesicles.
HEK293 cells were transfected with a pBudCE4.1 Mammalian Expression Vector (ThermoFisher) expressing wildtype human TREM2 and DAP12, and DAP12 alone. Stable expressing clones were selected and the cell surface TREM2 expression was evaluated by flow cytometry with APC-conjugated rat-anti-human/mouse-TREM2 monoclonal (R&D MAB17291). The highest wild type TREM2 expressing clone was selected for expansion. The clones stably expressing DAP12 were analyzed by Western blot.
(§2) Activation of TREM2-dependent pSYK signaling was measured using a commercial AlphaLISA assay (PerkinElmer). HEK293 cells: Two days before the experiment, HEK293 cells stably overexpressing TREM2 and DAP12 were plated at 40,000 cells/well on 96 well poly-D-lysine-coated plate. Differentiated human macrophage and BMDM were plated at 100,000 cells/well on tissue-culture treated 96-well plates. Cells were washed once with HBSS, then 50 μL of liposome mixture was added per well. For competition experiments, hTREM2-ECD or TREM1-his (Novoprotein Scientific) was incubated with liposomes for 1 hour at room temperature before adding to cells. 5 μg/mL human-specific mouse anti-TREM2 (Abnova) or 15 μg/mL mouse-specific sheep anti-TREM2 (R&D Systems) was added to each experiment as a positive control with side-by-side isotype controls, 5 μg/mL mouse IgG3 (R&D Systems) and 15 μg/mL polyclonal sheep IgG (R&D Systems), respectively. The cell plate was then transferred to a 37° C. incubator for 5 minutes. The liposome solution was discarded and 40 uL lysis buffer (Cell Signaling Technologies, CST). Lysate was incubated at 4 C for 30 min, then either frozen at −80 C or immediately carried forward to the alpha-LISA assay. Lysates were assayed using the standard protocol for the PerkinElmer pSYK AlphaLISA kit. 10 μL of lysate/well was transferred to a white opaque 384 well Optiplate (PerkinElmer). 5 μL of Acceptor Mix (containing the working solution of acceptor beads) was added per well followed by sealing of plates with foil seals and incubation 1 hour at room temperature. 5 μL of Donor Mix (containing the working solution of donor beads) was added to each well under reduced light conditions. Plates were again sealed and incubated 1 hour at room temperature. Plates were read using AlphaLISA settings on a PerkinElmer EnVision plate reader.

[3] = target: T2, hTREM2 (Homo sapiens, UniProt Q9NZC2); test: Lipid binding analysis using surface plasmon resonance, hTREM2 ECD; details: for Response Units at the highest analyte concentration: 30% test lipid/70% PC liposomes
T2 construct: The ecto domain (residues 19-172) of TREM2 was sub cloned in the pRK vector; secretion signal from mouse Ig kappa chain V-III (amino acids 1-20) (N); made in house; host or cells: Expi293F cells (secreted, purified from the media by Ni-NTA and SEC)
T2 sequence (Q9NZC2 19-172): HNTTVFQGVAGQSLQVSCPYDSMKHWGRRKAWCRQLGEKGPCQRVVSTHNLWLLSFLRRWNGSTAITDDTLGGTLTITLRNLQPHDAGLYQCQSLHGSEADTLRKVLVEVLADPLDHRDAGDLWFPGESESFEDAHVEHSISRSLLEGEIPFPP
Method: as §1
The ecto domain (residues 19-172) of TREM2 was sub cloned in the pRK vector with the secretion signal from mouse Ig kappa chain V-III, amino acids 1-20 at the N-terminal region and a 6×-His tag at the C-terminal region. Expi293F™ cells were transfected using the Expi293™ M Expression System Kit according to the manufacturer's instructions and the media supernatant was harvested 96 hr post transfection. Harvested media was supplemented with 1M imidazole pH 8.0 to a final concentration 10 mM, filtered, and loaded on to HisPur™ Ni-NTA Resin equilibrated with load buffer (20 mM Tris pH 8.0, 150 mM NaCl and 10 mM Imidazole). Nonspecifically bound proteins were washed with load buffer supplemented with 50 and 100 mM imidazole and TREM2 ecto domain was eluted with 20 mM Tris pH 8.0, 150 mM NaCl and 200 mM Imidazole. […] Elute fractions were analyzed by SDS PAGE and further characterized by analytical size exclusion chromatography and the intact protein mass determination.
The binding analysis was performed using Series S Sensor chip L1 and Biacore T200 instrument (GE Healthcare) at 25° C. […] Recombinant hTREM2-ECD or hTREM2-R74H-ECD proteins were diluted in PBS (0, 0.19, 0.56, 1.7, 5, and 15 μM) and injected over both flow cells for 60 seconds at 30 μl/min, and dissociation was monitored for additional 2 minutes. […]

[4] = target: T3, hTREM2 R47H (Homo sapiens, UniProt Q9NZC2, R47H); test: Lipid binding analysis using surface plasmon resonance, hTREM2 R47H ECD; details: for Response Units at the highest analyte concentration: 30% test lipid/70% PC liposomes; for Kd: 30% test lipid/70% PC liposomes on L1 chip, 25° C., steady-state; for faster off-rate of R47H variant vs hTREM2: SPR kinetic analysis
T3 construct: The ecto domain (residues 19-172) of TREM2 was sub cloned in the pRK vector; secretion signal from mouse Ig kappa chain V-III (amino acids 1-20) (N); made in house; host or cells: Expi293F cells (secreted, purified from the media by Ni-NTA and SEC)
T3 sequence (Q9NZC2 19-172 R47H): T2 sequence (Q9NZC2 19-172) with R29H
Method: as §1
The ecto domain (residues 19-172) of TREM2 was sub cloned in the pRK vector with the secretion signal from mouse Ig kappa chain V-III, amino acids 1-20 at the N-terminal region and a 6×-His tag at the C-terminal region. Expi293F™ cells were transfected using the Expi293™ M Expression System Kit according to the manufacturer's instructions and the media supernatant was harvested 96 hr post transfection. Harvested media was supplemented with 1M imidazole pH 8.0 to a final concentration 10 mM, filtered, and loaded on to HisPur™ Ni-NTA Resin equilibrated with load buffer (20 mM Tris pH 8.0, 150 mM NaCl and 10 mM Imidazole). Nonspecifically bound proteins were washed with load buffer supplemented with 50 and 100 mM imidazole and TREM2 ecto domain was eluted with 20 mM Tris pH 8.0, 150 mM NaCl and 200 mM Imidazole. Eluted protein was pooled and subjected to size exclusion chromatography onto a HiLoad Superdex 75 16/600 column using 1×PBS as the running buffer. Elute fractions were analyzed by SDS PAGE and further characterized by analytical size exclusion chromatography and the intact protein mass determination.
The binding analysis was performed using Series S Sensor chip L1 and Biacore T200 instrument (GE Healthcare) at 25° C. Before coating with lipids, the sensor surfaces were washed with 1 minute injection of 40 μM 3-[(3cholamidopropyl)dimethylammonio]-1-propanesulfonate (CHAPS) and 40 uM of 0-octylglucoside at a flow rate of 30 μl/min. Residual detergent on the sensor surfaces was washed away by 30 second injection of 30% ethanol. 1 mg/ml Sulfatide/DOPC or PS/DOPC small unilamellar vesicles were injected for 15 minutes at 5 μl/min over the second flow cell. First flow cell was coated with DOPC and served as a reference surface. Loosely bound vesicles were washed away with two short pulses (15 s) of 10 mM NaOH at 30 μl/min followed by injection of 0.1 mg/ml bovine serum albumin for 3 minutes to block poorly-coated surface. Recombinant hTREM2-ECD or hTREM2-R74H-ECD proteins were diluted in PBS (0, 0.19, 0.56, 1.7, 5, and 15 μM) and injected over both flow cells for 60 seconds at 30 μl/min, and dissociation was monitored for additional 2 minutes. Between each measurement the lipids surface was regenerated by injection of 10 mM NaOH. Steady-state affinities were obtained by fitting the response at equilibrium against the concentration using Biacore™ T200 Evaluation Software v3.1

[5] = target: T1, TREM2; test: pSYK AlphaLISA in human macrophages; format: cell-based; design: a system with endogenous expression of TREM2/DAP12; endogenous in cells; host or cells: macrophages differentiated from human peripheral blood monocytes (2-5 donors); details: for pSYK levels, titration: liposome or oxLDL titration
Method: as §1
as §2, with “Lysates were assayed using the standard protocol for the PerkinElmer pSYK AlphaLISA kit. 10 μL of lysate/well was transferred to a white opaque 384 well Optiplate (PerkinElmer). 5 μL of Acceptor Mix (containing the working solution of acceptor beads) was added per well followed by sealing of plates with foil seals and incubation 1 hour at room temperature. 5 μL of Donor Mix (containing the working solution of donor beads) was added to each well under reduced light conditions. Plates were again sealed and incubated 1 hour at room temperature.” left out, “reader. […]” for “reader.”

O=C(O)Cc1cccc(OCCCN(Cc2cccc(C(F)(F)F)c2Cl)CC(c2ccccc2)c2ccccc2)c1 [GW3965]
cholesterol levels ([1]; TREM2 KO iPSC microglia): not rescued | cholesteryl ester (CE) accumulation [1]: rescued; also recorded: reduced | cholesteryl ester (CE) accumulation ([1]; listed as GW3695): rescued the accumulation of all CE species measured

galactosylceramide [GalCer]
binding to and signaling via TREM2 (overall conclusion) [2]: did not appear to bind and signal via TREM2

phosphatidylethanolamine [PE]
binding to and signaling via TREM2 (overall conclusion) [2]: did not appear to bind and signal via TREM2

phosphatidylinositol [PI]
binding to and signaling via TREM2 (overall conclusion) [2]: did not appear to bind and signal via TREM2 | pSYK levels [2]: significantly increased pSYK levels

phosphatidylserine [PS]
Response Units at the highest analyte concentration [3]: 631 RU | Response Units at the highest analyte concentration [4]: 267 RU | Kd [4]: 14 µM | faster off-rate of R47H variant vs hTREM2 [4]: 2.4 fold | pSYK levels, titration [5]: dose-dependent increases in pSYK levels

sphingomyelin [SM]
binding to and signaling via TREM2 (overall conclusion) [2]: did not appear to bind and signal via TREM2

sulfatide
Response Units at the highest analyte concentration [3]: 704 RU | Kd ([3]; 30% test lipid/70% PC liposomes on L1 chip, 25° C., steady-state): 6.8 µM | Response Units at the highest analyte concentration [4]: 191 RU | Kd [4]: 20 µM | faster off-rate of R47H variant vs hTREM2 [4]: 5 fold | pSYK increase with recombinant TREM2 ECD competition ([5]; 3 μM recombinant TREM2-ECD): reduced to baseline levels | pSYK levels, titration [5]: dose-dependent increases in pSYK levels | binding to and signaling via TREM2 (overall conclusion) [2]: binds and signals via TREM2 | pSYK levels [2]: significantly increased pSYK levels
